Reference: paper PMC5104425, “A Novel Selective Inhibitor of Delta-5 Desaturase Lowers Insulin Resistance and Reduces Body Weight in Diet-Induced Obese C57BL/6J Mice” (PLoS ONE, 2016)

Key:
D5D = experiment: Blood fatty acids (PD markers AA, DGLA, EPA, DHA) after 6-week treatment in DIO mice; assay type: in vivo, C57BL/6J mice; settings: compound-326 0.1, 1, 10 mg/kg, 6 weeks
Procedure: Fatty acids were extracted from blood and tissues by adding hexane-isopropanol-butylated hydroxytoluene (60:40:0.01, v/v/w). Samples were vortexed for 30 min. The hexane phase was removed and evaporated to dryness under nitrogen stream and vacuum. Dried samples were dissolved in methanol and analyzed by HPLC.
(§1) Mice were fed a high-fat diet (HFD) that has 60% kcal from fat and contains 0.09% (w/w) AA (D12492; Research diets, Inc., see S1 Table for fatty acid profile) from 5 weeks of age, and they were divided into 5 groups (7 animals per group) at 11 weeks of age based on BW and daily food intake. In this experiment, 30 mg/kg sibutramine, a […], was used as a positive control for anti-obesity effects. Mice were orally administered compound-326 at doses of 0.1, 1, and 10 mg/kg, sibutramine at a dose of 30 mg/kg, or vehicle for 6 weeks. After 6 weeks, blood concentrations of DGLA and AA under non-fasting condition were evaluated as pharmacodynamics (PD) markers, and oral glucose tolerance test (OGTT) was performed.

rat D5D = biological target: T1, rat D5D (Rattus norvegicus, UniProt Q920R3); experiment: In vitro enzyme assay for desaturase activity (hepatic microsomes), D5D; assay type: biochemical
T1 construct: using hepatic microsomes prepared from SD rats; from tissue; host or cells: liver microsomes of SD rats (CLEA, Japan)
Procedure: (§2) Therefore, we also confirmed that compound-326 has no effect on D9D activity. Inhibitory activity of compound-326 on rat D5D, D6D, and D9D was evaluated using hepatic microsomes prepared from SD rats (CLEA, Japan) as described previously. Assays were performed in a total volume of 30 μL in 96-well plates in a buffer containing 100 mM NaHPO4, 150 mM KCl, 10 mM NaF, 1.5 mM glutathione, 3 mM MgCl2, 1 mM NADH, 3 mM ATP, 0.3 mM CoA-SH, and 0.1% fatty acid free bovine serum albumin (BSA, Sigma, St. Louis, MO); and 0.1 μCi/well of [^14C] DGLA or [^14C] linoleic acids (ARC, St. Louis, MO) were used as substrates for measuring D5D and D6D activities, respectively. After pre-incubation of the test compound with rat liver microsomes (final 1.0 mg/mL) for 5 min, the reaction was started by the addition of NADH, ATP, and the substrates, and the reaction mixture was incubated for another 120 min at room temperature. For D9D assay, [^14C] stearoyl-CoA (PerkinElmer, Waltham, MA) was used in the absence of NADH, ATP, and CoA-SH, and D9D enzyme reaction was performed for 30 min. The reactions were then terminated by the addition of 0.63 N NaOH. […] 2.3 (Fujifilm) and IC50 values were determined using the conversion ratio from the radioactive substrates (20:3n6, 18:2n6 and 18:0) to the products (20:4n6, 18:3n6 and 18:1n9).

DIO mice [1] = experiment: Anti-obesity effects in DIO mice, 6-week treatment (HFD D12492): BW, calorie intake, observations; assay type: in vivo, C57BL/6J mice
Procedure: In this report, we performed 3 independent studies in DIO mice to characterize anti-obesity effects of our D5D specific inhibitor. Male C57BL/6J mice were obtained from Charles River Laboratories (Yokohama, Japan) or CLEA Japan (Osaka, Japan). The mice were fed a laboratory chow and water ad libitum and housed in a 12-h light/dark cycle. Compound or vehicle was administered once daily between 15: 00–19:00 by oral gavage. Body weight (BW) and food intake were monitored throughout the experiment.
as §1

rat D9D = biological target: T2, rat D9D (Rattus norvegicus, UniProt P07308); experiment: In vitro enzyme assay for desaturase activity (hepatic microsomes), D9D; assay type: biochemical
T2 construct: using hepatic microsomes prepared from SD rats; from tissue; host or cells: liver microsomes of SD rats (CLEA, Japan)
T2 sequence (P07308 1-358): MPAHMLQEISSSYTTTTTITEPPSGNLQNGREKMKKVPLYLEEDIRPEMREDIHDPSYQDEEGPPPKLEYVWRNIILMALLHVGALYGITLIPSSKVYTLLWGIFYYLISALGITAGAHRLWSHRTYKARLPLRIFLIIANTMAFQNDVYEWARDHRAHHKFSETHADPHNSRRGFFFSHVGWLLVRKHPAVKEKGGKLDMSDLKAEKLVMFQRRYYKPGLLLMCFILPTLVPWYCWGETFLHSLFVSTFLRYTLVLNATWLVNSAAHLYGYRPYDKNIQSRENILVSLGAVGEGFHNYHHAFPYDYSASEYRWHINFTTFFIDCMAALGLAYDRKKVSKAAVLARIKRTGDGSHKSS
Procedure: as §2

rat D6D = biological target: T3, rat D6D (Rattus norvegicus, UniProt Q9Z122); experiment: In vitro enzyme assay for desaturase activity (hepatic microsomes), D6D; assay type: biochemical
T3 construct: using hepatic microsomes prepared from SD rats; from tissue; host or cells: liver microsomes of SD rats (CLEA, Japan)
Procedure: as §2

DIO mice [2] = experiment: Oral glucose tolerance test and HOMA-IR after 6-week treatment in DIO mice; assay type: in vivo, C57BL/6J mice
Procedure: as §1
On the last day of the experiment, mice were given an oral glucose load (2 g/kg) after overnight fasting. Blood samples were collected at specified time points of 0 (pre-glucose/fasting glucose levels), 10, 30, 60, and 120 min post glucose load for the determination of plasma glucose as well as insulin levels. Plasma glucose was enzymatically measured with auto-analyzer 7180 (Hitachi High-Technologies Corporation, Tokyo, Japan). Plasma insulin was measured with mouse insulin ELISA kit (Shibayagi, Gunma, Japan). The total area under the glucose curve was determined from time 0 to 120 min (AUC0–120 min) after glucose administration. Homeostasis model assessment-insulin […] (HOMA-IR) was calculated using the formula: [(fasted PG: mg/dL)×(fasted insulin; μU/mL)[…]/405] [28].

T3 sequence (Q9Z122 whole entry): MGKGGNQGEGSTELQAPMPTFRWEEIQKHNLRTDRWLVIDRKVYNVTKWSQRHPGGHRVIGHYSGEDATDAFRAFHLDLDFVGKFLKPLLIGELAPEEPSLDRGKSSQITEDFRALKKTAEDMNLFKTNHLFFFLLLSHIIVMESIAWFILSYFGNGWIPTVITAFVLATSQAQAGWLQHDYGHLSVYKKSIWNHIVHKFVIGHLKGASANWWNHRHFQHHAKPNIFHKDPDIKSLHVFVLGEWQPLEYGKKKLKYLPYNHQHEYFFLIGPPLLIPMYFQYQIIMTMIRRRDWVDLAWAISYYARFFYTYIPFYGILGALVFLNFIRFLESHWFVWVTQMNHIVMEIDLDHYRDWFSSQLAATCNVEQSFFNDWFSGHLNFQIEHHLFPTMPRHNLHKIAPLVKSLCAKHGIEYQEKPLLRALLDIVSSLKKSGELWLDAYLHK
T1 sequence (Q920R3 whole entry): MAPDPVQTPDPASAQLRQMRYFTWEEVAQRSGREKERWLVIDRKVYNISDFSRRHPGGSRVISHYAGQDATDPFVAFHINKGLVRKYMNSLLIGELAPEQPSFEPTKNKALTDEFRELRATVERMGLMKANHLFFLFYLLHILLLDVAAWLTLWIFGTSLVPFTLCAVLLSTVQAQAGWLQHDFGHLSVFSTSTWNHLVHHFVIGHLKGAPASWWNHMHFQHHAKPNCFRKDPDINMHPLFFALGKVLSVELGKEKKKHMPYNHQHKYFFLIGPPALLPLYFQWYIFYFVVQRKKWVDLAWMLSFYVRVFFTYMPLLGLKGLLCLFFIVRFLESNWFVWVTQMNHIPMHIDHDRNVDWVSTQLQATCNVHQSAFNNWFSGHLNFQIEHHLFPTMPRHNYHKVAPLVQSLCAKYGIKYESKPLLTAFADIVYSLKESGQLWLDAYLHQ

Compound: O=C1Cc2c(nc(OCC(F)(F)C(F)(F)F)n(-c3ccc(OCC(F)(F)F)cc3)c2=O)N1 [Compound-326, 2-(2,2,3,3,3-Pentafluoropropoxy)-3-[4-(2,2,2-trifluoroethoxy)phenyl]-5,7-dihydro-3H-pyrrolo[2,3-d]pyrimidine-4,6-dione]
- blood AA to DGLA ratio (D5D): decreased significantly
- blood level of DHA (D5D; dose dependent): decreased
- blood level of EPA (D5D; dose dependent): decreased
- blood AA (D5D; dose-dependent, non-fasting): decreased
- blood DGLA (D5D; dose-dependent, non-fasting): increased
- IC50 (rat D5D): 0.072 µM
- BW (DIO mice [1]; compound-326 10 mg/kg p.o. once daily, 6 weeks): gradual decrease in BW
- abnormal findings such as behavioral changes, diarrhea, or steatorrhea (DIO mice [1]; compound-326 0.1-10 mg/kg p.o., 6 weeks): No abnormal findings
- daily calorie intake (DIO mice [1]; compound-326 at all doses (0.1, 1, 10 mg/kg), slight decrease at 10 mg/kg): not altered significantly
- BW (DIO mice [1]; compound-326 lower doses (0.1 and 1 mg/kg) p.o., 6 weeks): not effective
- IC50 (rat D9D; Enzyme (hepatic microsomes), rat): > 10 µM
- effect on D9D activity (rat D9D; species not given): no effect
- inhibition of D6D activity (rat D6D): almost no inhibition
- IC50 (rat D6D; Enzyme (hepatic microsomes)): > 10 µM
- HOMA-IR (DIO mice [2]; compound-326 0.1, 1, 10 mg/kg, after 6-week treatment, dose-dependent): decreased
- insulin levels (OGTT) (DIO mice [2]; compound-326, after 6-week treatment): no change
- glucose tolerability and insulin sensitivity (DIO mice [2]; observed from dose of 1 mg/kg without a significant decrease in BW): improvement
